Laboratory results taken from patent US20260124201A1, “CYCLOPENTANE COMPOUND” (Kissei Pharmaceutical Co., Ltd., priority 2022, published 2026).

Columns and labels:
wild-type mice = conditions: subcutaneous administration; cited from earlier work
NT1 patients = conditions: clinical study; cited from earlier work
human OX2R = target: T1, human OX2R (Homo sapiens, UniProt O43614); assay: Measurement of OX2R agonist activity (intracellular calcium concentration change, Fluo4-AM, FDSS 7000); assay type: cell-based; conditions: compound concentration 10 μM; human OX2R-expressing CHO-K1 cells; 1 μM human orexin A peptide = 100%, medium alone = 0%
T1 construct: expressed in transfected cells
T1 sequence (O43614 1-444): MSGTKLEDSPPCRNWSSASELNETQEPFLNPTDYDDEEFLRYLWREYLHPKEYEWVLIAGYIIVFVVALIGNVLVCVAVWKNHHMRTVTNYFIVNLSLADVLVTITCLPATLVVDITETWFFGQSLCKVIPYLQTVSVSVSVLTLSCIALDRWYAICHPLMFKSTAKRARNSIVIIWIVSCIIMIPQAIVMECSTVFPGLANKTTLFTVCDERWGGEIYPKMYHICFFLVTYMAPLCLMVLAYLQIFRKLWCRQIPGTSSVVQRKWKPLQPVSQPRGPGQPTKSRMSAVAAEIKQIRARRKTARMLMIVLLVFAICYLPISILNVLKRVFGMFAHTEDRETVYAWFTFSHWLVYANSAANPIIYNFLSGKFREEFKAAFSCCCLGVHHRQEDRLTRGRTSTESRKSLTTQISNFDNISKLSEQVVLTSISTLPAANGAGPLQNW
Summary of the method: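 Stable human OX2R-expressing CHO-K1 cells, loaded 45 min at 37 °C with 1.14 μM Fluo4-AM plus probenecid in HEPES-buffered HBSS pH 7.4; calcium fluorescence read by FDSS. Activation at 10 μM compound expressed relative to 1 μM human orexin A (100%) and medium alone (0%).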

## COC(=O)N1CCC[C@H](NS(C)(=O)=O)[C@@H]1CO[C@H]1CC[C@@H](c2ccccc2)CC1 [TAK-925]
wild-type mice
  wake time: prolonging of wake time
NT1 patients
  wakefulness and daytime sleepiness: maintaining wakefulness and reducing daytime sleepiness

## CON(C)C(=O)[C@@]1(Cc2ccc(F)c(-c3ncc(F)cn3)c2)C[C@@H](F)[C@H](NS(C)(=O)=O)C1 [Example 64, (1R,3R,4R)-3-Fluoro-1-(4-fluoro-3-(5-fluoropyrimidin-2-yl)benzyl)-N-methoxy-N-methyl-4-(methylsulfonamido)cyclopentane-1-carboxamide]
Human OX2R
  Act. (%): activation rate of test substance: 101%

## CCS(=O)(=O)N[C@@H]1C[C@@](Cc2ccc(F)c(-c3ncc(F)cn3)c2)(C(=O)N(C)OC)C[C@@H]1F (relative stereo) [Example 36, (1R*,3R*,4S*)-3-(Ethylsulfonamido)-4-fluoro-1-(4-fluoro-3-(5-fluoropyrimidin-2-yl)benzyl)-N-methoxy-N-methylcyclopentane-1-carboxamide]
Human OX2R
  Act. (%): activation rate of test substance: 84%

## CON(C)C(=O)[C@@]1(Cc2ccc(F)c(-c3cc(F)cc(F)c3)c2)CC[C@H](NS(C)(=O)=O)C1 (relative stereo) [Example 5]
Human OX2R
  Act. (%): activation rate of test substance: 73%

## CON(C)C(=O)[C@@]1(Cc2cccc(-c3ncc(F)cn3)c2)C[C@H](F)[C@H](NS(=O)(=O)C(C)C)C1 [Example 58, (1R,3S,4R)-3-Fluoro-1-(3-(5-fluoropyrimidin-2-yl)benzyl)-N-methoxy-N-methyl-4-((1-methylethyl)sulfonamido)cyclopentane-1-carboxamide]
Human OX2R
  Act. (%): activation rate of test substance: 95%

## CON(C)C(=O)[C@@]1(Cc2ccc(F)c(-c3ncc(Cl)cn3)c2)CC[C@H](NS(C)(=O)=O)C1 (relative stereo) [Example 23]
Human OX2R
  Act. (%): activation rate of test substance: 83%

## CON(C)C(=O)[C@@]1(Cc2cccc(-c3ncc(F)cn3)c2)C[C@@H](C)[C@H](NS(C)(=O)=O)C1 (relative stereo) [Example 44, (1R*,3R*,4R*)-1-(3-(5-Fluoropyrimidin-2-yl)benzyl)-N-methoxy-N,3-dimethyl-4-(methylsulfonamido)cyclopentane-1-carboxamide]
Human OX2R
  Act. (%): activation rate of test substance: 96%
